Test results published in patent US20240165077A1, “COMPOSITIONS AND METHODS FOR TREATING NEUROLOGIC DISEASES” (Cognition Therapeutics, Inc., priority 2021, published 2024).
Read-outs that look alike come from different tables or passages of the source.

Legend:
[1] = tested on: α-synuclein oligomers (α-synO) binding to neuronal synapses; assay: Displacement of alpha-synuclein oligomers: α-synO binding to neuronal synapses (ASYO5 immunostaining); assay type: cell-based, Rat; conditions: 24 hours; for α-synO binding to neuronal synapses: synthetic α-synO, FIG. 1D/1E
Protocol: FIG. 1A is a representative image of a neuron culture with a seeding control (7.1 nM) treated with a vehicle for 24 hours. Cultures were immunostained for the neurite marker microtubule associated protein 2 (MAP2; green) and for α-synuclein oligomers using an alpha-synuclein, oligomer-specific antibody (ASYO5 antibody, Agrisera; red). No α-synOs are present in the vehicle treated cultures.
FIG. 1B is a representative image of a neuron culture treated with synthetic α-synuclein oligomers (1 μM) for 24 hours and immunostained for the neurite marker microtubule associated protein 2 (MAP2; green) and for α-synuclein oligomers using an alpha-synuclein, oligomer-specific antibody (ASYO5 antibody, Agrisera; red).
FIG. 1C is a representative image of a neuron culture treated with synthetic α-synuclein oligomers (1 μM) and Compound A:
(10 μM) for 24 hours and immunostained for the neurite marker microtubule associated protein 2 (MAP2; green) and for α-synuclein oligomers using an alpha-synuclein, oligomer-specific antibody (ASYO5 antibody, Agrisera; red).
FIG. 1D is a graphical representation of binding affinity of α-synuclein oligomers (α-SynO) to neuronal synapses after treatment with vehicle (α-SynO) or treatment with Compound B
FIG. 1E is a graphical representation of binding affinity of α-synuclein oligomers (α-SynO) to neuronal synapses after treatment with vehicle (α-SynO) or treatment with Compound A
(§1) Rat neuronal cultures were treated with vehicle (an a seeding control (7.1 nM) without α-synuclein oligomers (α-synOs)) or synthetic α-synOs for 24 hours. Cultures were immunostained for the neurite marker microtubule associated protein 2 (MAP2; green) and for α-synOs using an alpha-synuclein, oligomer-specific antibody (ASYO5 antibody, Agrisera; red).

[2] = tested on: α-synO-induced vesicle trafficking deficits; assay: Vesicle trafficking in neuronal cultures treated with α-synuclein oligomers; assay type: cell-based, Rat; conditions: α-synOs 1.0 μM final concentration; for Emax / EC50: Rattus norvegicus; for Emax: FIG. 1F/1G, read-out: Emax, amelioration of α-synO vesicle trafficking deficit; for EC50: read-out: EC50, amelioration of α-synO vesicle trafficking deficit
Protocol: FIG. 1F is a graphical representation of vesicular trafficking in untreated control cultures, cultures treated with α-synuclein oligomers (α-SynO) for 24 hours, or cultures treated with α-synuclein oligomers (α-SynO) and Compound B
FIG. 1G is a graphical representation of vesicular trafficking in untreated control cultures, cultures treated with α-synuclein oligomers (α-SynO) for 24 hours, or cultures treated with α-synuclein oligomers (α-SynO) and Compound A
as §1
Untreated vehicle control cultures without any α-SynO addition lack α-synO immunoreactivity (FIG. 1A). […] FIGS. 1D, 1E, 1F, 1G: * p<0.05, **p<0.01, […], ****p<0.001, one-way ANOVA for drug concentration vs control with Dunnett's post-test.

[3] = tested on: α-synuclein; assay: Animal models of Parkinson's disease (AAV1/2 A53T-α-synuclein overexpression; intrastriatal α-synuclein preformed fibrils); assay type: in vivo, rat; conditions: both models of Parkinson's disease
Description: Examples include models of overexpression of α-synuclein or models that mimic the propagation of α-synuclein throughout the brain. One such overexpression model is the rat AAV1/2 A53T-α-synuclein model (Koprich, J. B., Johnston, T. H., Huot, P., Reyes, M. G., Espinosa, M., Brotchie, J. M., “Progressive neurodegeneration or endogenous compensation in an animal model of Parkinson's disease produced by decreasing doses of alpha-synuclein,” PLoS One, 6:1-9 (2011), which is hereby incorporated herein by reference in its entirety), where induction of α-synuclein overexpression is accompanied by loss of nigral dopaminergic cells, lower dopamine transporter levels, lower dopamine levels and motor deficits. Another example uses intrastriatal injection of preformed fibrils of α-synuclein to model propagation of Parkinson's pathology throughout the brain (Duffy, M. F., Collier, T. J., Patterson, J. R., Kemp, C. J., Fischer D. L., Stoll, A. C., Sortwell, C. E., “Quality over quantity: Advantages of using alpha-synuclein preformed fibrils triggered synucleinopathy to model idiopathic Parkinson's disease,” Front Neurosci, 12:1-10 (2018) and Patterson, J. R., Duffy, M. F., Kemp, C. J., Howe, J. W., Collier, T. J., Stoll, A. C., Miller, K. M., Patel, P., Levine, N., Moore, D. J., Luk, K. C., Fleming, S. M., Kanaan, N. M, Paumier, K. L., El Agnaf, O. M. A., Sortwell, C. […]

EC50 ([2]; FIG. 1F)	EC50 ([2]; FIG. 1G)	SMILES	α-synO binding to neuronal synapses [1]	Emax [2]	rescue of α-synO-induced trafficking deficits [2]	deficits characteristic of Parkinson's disease and their propagation throughout the brain [3]	punctate binding of α-synOs along neurites ([1]; 1 μM α-synO, compound 10 μM, FIG. 1B/1C)
310 nM	–	CC(C)=C[C@@H](CC(C)(C)c1ccc(C(F)(F)F)cc1)N1CCC(C2CCOCC2)CC1 [Compound B]	block α-synO binding to neuronal synapses in a concentration-dependent manner	92%	rescue α-synO-induced trafficking deficits in a concentration-dependent manner	reduces some or all deficits that are characteristic of Parkinson's disease	–
–	650 nM	CC(C)(C)Oc1cc(CCC(C)(C)N2Cc3ccc(S(C)(=O)=O)cc3C2)ccc1O [Compound A]	block α-synO binding to neuronal synapses in a concentration-dependent manner	87%	rescue α-synO-induced trafficking deficits in a concentration-dependent manner	reduces some or all deficits that are characteristic of Parkinson's disease	punctate binding of α-synOs along neurites in the absence (FIG. 1B) but not presence
